{
  "source": "ChEMBL document CHEMBL5316298",
  "about": "“Discovery of Amphiphilic Xanthohumol Derivatives as Membrane-Targeting Antimicrobials against Methicillin-Resistant Staphylococcus aureus” (J Med Chem, 2023)",
  "key": {"[1]": {"tested_on": "Staphylococcus aureus", "assay": "Antibacterial activity against Staphylococcus aureus ATCC 29213 incubated for 16 to 18 hrs by CLSI-based microbroth dilution method", "format": "functional", "settings": "time 16-18 hrs"}, "[2]": {"tested_on": "Staphylococcus aureus", "assay": "Antibacterial activity against methicillin-resistant Staphylococcus aureus clinical isolate 1 incubated for 16 to 18 hrs by CLSI-based microbroth dilution method", "format": "functional", "settings": "time 16-18 hrs"}, "[3]": {"tested_on": "Staphylococcus aureus", "assay": "Antibacterial activity against methicillin-resistant Staphylococcus aureus clinical isolate 2 incubated for 16 to 18 hrs by CLSI-based microbroth dilution method", "format": "functional", "settings": "time 16-18 hrs"}, "[4]": {"tested_on": "Staphylococcus aureus", "assay": "Antibacterial activity against methicillin-resistant Staphylococcus aureus clinical isolate 3 incubated for 16 to 18 hrs by CLSI-based microbroth dilution method", "format": "functional", "settings": "time 16-18 hrs"}, "[5]": {"tested_on": "Staphylococcus aureus", "assay": "Antibacterial activity against methicillin-resistant Staphylococcus aureus clinical isolate 6 incubated for 16 to 18 hrs by CLSI-based microbroth dilution method", "format": "functional", "settings": "time 16-18 hrs"}, "[6]": {"tested_on": "Staphylococcus aureus", "assay": "Antibacterial activity against methicillin-resistant Staphylococcus aureus clinical isolate 7 incubated for 16 to 18 hrs by CLSI-based microbroth dilution method", "format": "functional", "settings": "time 16-18 hrs"}, "[7]": {"tested_on": "Staphylococcus aureus", "assay": "Antibacterial activity against methicillin-resistant Staphylococcus aureus clinical isolate 8 incubated for 16 to 18 hrs by CLSI-based microbroth dilution method", "format": "functional", "settings": "time 16-18 hrs"}, "[8]": {"tested_on": "Staphylococcus aureus", "assay": "Antibacterial activity against methicillin-resistant Staphylococcus aureus clinical isolate 9 incubated for 16 to 18 hrs by CLSI-based microbroth dilution method", "format": "functional", "settings": "time 16-18 hrs"}, "[9]": {"tested_on": "Staphylococcus aureus", "assay": "Bactericidal activity against Staphylococcus aureus ATCC 29213 at 8 times MIC measured at 1 hr by time kill assay", "format": "functional, organism-based"}, "[10]": {"tested_on": "Staphylococcus aureus", "assay": "Induction of drug resistance in Staphylococcus aureus ATCC 29213 assessed as increase in MIC at 0.5 times MIC measured for 20 passages", "format": "functional"}, "[11]": {"tested_on": "Cell membrane", "assay": "Disruption of membrane integrity in methicillin-resistant Staphylococcus aureus 3 assessed as appearance of ruptured cell surface at 16 ug/ml incubated for 240 mins by SEM analysis", "format": "subcellular", "settings": "dose 16.0 µg/ml"}, "[12]": {"tested_on": "Cell membrane", "assay": "Disruption of membrane integrity in methicillin-resistant Staphylococcus aureus 3 assessed as increase in red fluorescence at 8 times MIC incubated for 4 hrs by DAPI/PI staining based laser confocal microscopic analysis", "format": "subcellular"}, "[13]": {"tested_on": "Cell membrane", "assay": "Induction of membrane depolarization in methicillin-resistant Staphylococcus aureus 3 assessed as increase in fluorescence intensity measured every 2 mins for 20 mins by SYTOX-green dye based fluorescence assay", "format": "subcellular", "settings": "dose 8-32 µg/ml"}, "[14]": {"tested_on": "Cell membrane", "assay": "Disruption of membrane integrity in methicillin-resistant Staphylococcus aureus 3 assessed as increase in red fluorescence of PI incubated for 2 hrs by SYTO 9/PI staining based flow cytometry analysis", "format": "subcellular", "settings": "dose 4-64 µg/ml"}, "[15]": {"tested_on": "Staphylococcus aureus", "assay": "Anti-MRSA activity against methicillin-resistant Staphylococcus aureus 3 incubated for 16 to 18 hrs in presence of 0 to 32 ug/ml cardiolipin by checkerboard broth dilution method", "format": "functional", "settings": "time 16-18 hrs"}, "[16]": {"tested_on": "Staphylococcus aureus", "assay": "Anti-MRSA activity against methicillin-resistant Staphylococcus aureus 3 incubated for 16 to 18 hrs in presence of 64 ug/ml cardiolipin by checkerboard broth dilution method (reference value: 1 ug/ml)", "format": "functional", "settings": "time 16-18 hrs"}, "[17]": {"tested_on": "Staphylococcus aureus", "assay": "Induction of ROS production in methicillin-resistant Staphylococcus aureus 3 assessed as increase in intracellular ROS level incubated for 40 mins by DCFH-DA dye based fluorescence analysis", "format": "functional, organism-based", "settings": "dose 0-64 µg/ml"}, "[18]": {"tested_on": "Cell membrane", "assay": "Disruption of membrane integrity in methicillin-resistant Staphylococcus aureus 3 assessed as increase in protein leakage at 1 to 8 times MIC incubated for 4 hrs by microspectrophotometer analysis", "format": "subcellular"}, "[19]": {"tested_on": "Staphylococcus aureus", "assay": "Bactericidal activity against methicillin-resistant Staphylococcus aureus 3 incubated for 6 hrs in presence of 50% sheep plasma", "format": "functional, organism-based"}, "[20]": {"tested_on": "L02", "assay": "Cytotoxicity against human L02 cells assessed as reduction in cell viability at 64 ug/ml incubated for 24 hrs by CCK-8 assay", "format": "toxicity, cell-based", "settings": "l02, 24 h, dose 64 µg/ml"}, "[21]": {"assay": "Toxicity in KM mouse assessed as swelling in skin at 40 to 80 mg/kg, sc administered into middle dorsum and measured after 24 hrs", "format": "organism-based", "settings": "in vivo, dose 40-80 mg/kg"}, "[22]": {"assay": "Toxicity in KM mouse assessed as effect on RBC count at 20 mg/kg, sc administered into middle dorsum and measured after 24 hrs by routine blood test", "format": "organism-based, Erythrocyte", "settings": "in vivo"}, "[23]": {"assay": "Toxicity in KM mouse assessed as effect on platelet count at 20 mg/kg, sc administered into middle dorsum and measured after 24 hrs by routine blood test", "format": "organism-based", "settings": "in vivo"}, "[24]": {"assay": "Toxicity in KM mouse assessed as pathological changes in spleen at 20 mg/kg, sc administered into middle dorsum and measured after 24 hrs by H and E staining based analysis", "format": "organism-based", "settings": "in vivo"}, "[25]": {"assay": "Toxicity in KM mouse assessed as pathological changes in lungs at 20 mg/kg, sc administered into middle dorsum and measured after 24 hrs by H and E staining based analysis", "format": "organism-based", "settings": "in vivo"}, "[26]": {"assay": "Toxicity in KM mouse assessed as pathological changes in kidneys at 20 mg/kg, sc administered into middle dorsum and measured after 24 hrs by H and E staining based analysis", "format": "organism-based", "settings": "in vivo"}, "[27]": {"tested_on": "Staphylococcus aureus", "assay": "Antibacterial activity against methicillin-resistant Staphylococcus aureus 3 infected in KM mouse assessed as reduction in bacterial load at infection site at 10 mg/kg administered into skin infection site measured after 24 hrs relative to control", "format": "functional", "set-up": "scale not given: the % may be the effect or the level left"}, "[28]": {"tested_on": "Staphylococcus aureus", "assay": "Antibacterial activity against methicillin-resistant Staphylococcus aureus 3 infected in KM mouse assessed as reduction in bacterial load at infection site at 5 mg/kg administered into skin infection site measured after 24 hrs relative to control", "format": "functional", "set-up": "scale not given: the % may be the effect or the level left"}, "[29]": {"tested_on": "Staphylococcus aureus", "assay": "Antibacterial activity against methicillin-resistant Staphylococcus aureus 3 infected in KM mouse assessed as reduction in bacterial load at infection site by measuring colony forming units at 5 mg/kg administered into skin infection site measured after 24 hrs", "format": "functional"}, "[30]": {"assay": "Toxicity in KM mouse infected with methicillin-resistant Staphylococcus aureus 3 assessed as heart damage at 5 to 10 mg/kg administered into skin infection site measured after 24 hrs by H and E staining based analysis", "format": "organism-based", "settings": "in vivo, topical_or_ocular, dose 5-10 mg/kg"}, "[31]": {"assay": "Toxicity in KM mouse infected with methicillin-resistant Staphylococcus aureus 3 assessed as lung damage at 5 to 10 mg/kg administered into skin infection site measured after 24 hrs by H and E staining based analysis", "format": "organism-based", "settings": "in vivo, topical_or_ocular, dose 5-10 mg/kg"}, "[32]": {"assay": "Toxicity in KM mouse infected with methicillin-resistant Staphylococcus aureus 3 assessed as kidney damage at 5 to 10 mg/kg administered into skin infection site measured after 24 hrs by H and E staining based analysis", "format": "organism-based", "settings": "in vivo, topical_or_ocular, dose 5-10 mg/kg"}, "[33]": {"assay": "Toxicity in KM mouse infected with methicillin-resistant Staphylococcus aureus 3 assessed as histopathological abnormalities in spleen at 5 to 10 mg/kg administered into skin infection site measured after 24 hrs by H and E staining based analysis", "format": "organism-based", "settings": "in vivo, topical_or_ocular, dose 5-10 mg/kg"}, "[34]": {"assay": "Toxicity in KM mouse infected with methicillin-resistant Staphylococcus aureus 3 assessed as histopathological abnormalities in lungs at 5 to 10 mg/kg administered into skin infection site measured after 24 hrs by H and E staining based analysis", "format": "organism-based", "settings": "in vivo, topical_or_ocular, dose 5-10 mg/kg"}, "[35]": {"assay": "Toxicity in KM mouse infected with methicillin-resistant Staphylococcus aureus 3 assessed as multifocal enlargement of hepatocytes with cytoplasmic foamy swelling at 5 to 10 mg/kg administered into skin infection site measured after 24 hrs by H and E staining based analysis", "format": "organism-based", "settings": "in vivo, topical_or_ocular, dose 5-10 mg/kg"}, "[36]": {"assay": "Toxicity in KM mouse infected with methicillin-resistant Staphylococcus aureus 3 assessed as swelling of renal tubular epithelial cells with granular degeneration at 5 to 10 mg/kg administered into skin infection site measured after 24 hrs by H and E staining based analysis", "format": "organism-based", "settings": "in vivo, topical_or_ocular, dose 5-10 mg/kg"}},
  "note": "Active and inactive are the calls of the source. No cut-off for these calls is given here.",
  "data": [
    {"smiles": "CCCN(CCC)C(=O)C[N+](C)(C)CCCCOc1ccc(/C=C/C(=O)c2c(OC)cc3c(c2O)C=CC(C)(C)O3)cc1.[Br-]", "values": [
      {"measurement": "MIC", "setting": "[1]", "value": 1, "unit": "µg/mL"},
      {"measurement": "MIC", "setting": "[2]", "value": 2, "unit": "µg/mL"},
      {"measurement": "MIC", "setting": "[3]", "value": 2, "unit": "µg/mL"},
      {"measurement": "MIC", "setting": "[4]", "value": 1, "unit": "µg/mL"},
      {"measurement": "MIC", "setting": "[5]", "value": 1, "unit": "µg/mL"},
      {"measurement": "MIC", "setting": "[6]", "value": 2, "unit": "µg/mL"},
      {"measurement": "MIC", "setting": "[7]", "value": 2, "unit": "µg/mL"},
      {"measurement": "MIC", "setting": "[8]", "value": 2, "unit": "µg/mL"},
      {"measurement": "Activity", "setting": "[9]", "value": "Active"},
      {"measurement": "Activity", "setting": "[10]", "value": "inactive"},
      {"measurement": "Activity", "setting": "[11]", "value": "Active"},
      {"measurement": "Activity", "setting": "[12]", "value": "Active"},
      {"measurement": "Activity", "setting": "[13]", "value": "Dose-Dependent Effect"},
      {"measurement": "Activity", "setting": "[14]", "value": "Dose-Dependent Effect"},
      {"measurement": "MIC", "setting": "[15]", "value": 1, "unit": "µg/mL"},
      {"measurement": "MIC", "setting": "[16]", "value": 32, "unit": "µg/mL"},
      {"measurement": "Activity", "setting": "[17]", "value": "Active"},
      {"measurement": "Activity", "setting": "[18]", "value": "Dose-Dependent Effect"},
      {"measurement": "Activity", "setting": "[19]", "value": "Active"},
      {"measurement": "Activity", "setting": "[20]", "value": "Non-Toxic"},
      {"measurement": "Activity", "setting": "[21]", "value": "Toxic"},
      {"measurement": "Activity", "setting": "[22]", "value": "Non-Toxic"},
      {"measurement": "Activity", "setting": "[23]", "value": "Non-Toxic"},
      {"measurement": "Activity", "setting": "[24]", "value": "Non-Toxic"},
      {"measurement": "Activity", "setting": "[25]", "value": "Non-Toxic"},
      {"measurement": "Activity", "setting": "[26]", "value": "Non-Toxic"},
      {"measurement": "Activity", "setting": "[27]", "value": 99.998, "unit": "%"},
      {"measurement": "Activity", "setting": "[28]", "value": 99.905, "unit": "%"},
      {"measurement": "Activity", "setting": "[29]", "value": 3, "unit": "log10CFU/g"},
      {"measurement": "Activity", "setting": "[30]", "value": "Non-Toxic"},
      {"measurement": "Activity", "setting": "[31]", "value": "Non-Toxic"},
      {"measurement": "Activity", "setting": "[32]", "value": "Non-Toxic"},
      {"measurement": "Activity", "setting": "[33]", "value": "Non-Toxic"},
      {"measurement": "Activity", "setting": "[34]", "value": "Non-Toxic"},
      {"measurement": "Activity", "setting": "[35]", "value": "Non-Toxic"},
      {"measurement": "Activity", "setting": "[36]", "value": "Non-Toxic"}
    ]}
  ]
}
